This data set can be described thus: Pharmacokinetic study in dogs, oral dosing of tablet compositions with SNAC. The note with it: dog, in vivo, po. The data set is classed as in vivo, Beagle dogs. How it is done:
The purpose of this example is to determine the half-life and plasma exposure in vivo of the compounds of the present invention after p.o. administration to beagle dogs, i.e. the terminal half-life and concentration of test substance that reaches circulation with time. This is done in a pharmacokinetic (PK) study, where these parameters of the compound in question are determined. By terminal half-life is generally meant the period of time it takes to halve a certain plasma concentration, measured after the initial distribution phase.
The amount of SNAC in the tablet composition was 100-300 mg, the amount of magnesium stearate in the tablet composition was 7.7 mg, and the target amount of each test substance in the tablet composition was 3-4 mg.
Male beagle dogs, 1-7 years of age and weighing 9-17 kg during the study period, were included in the study. The dogs were dosed in a fasting state. The dogs were group housed in pens (12 hours light: 12 hours dark), and fed individually and restrictedly once daily with Royal Canin Medium Adult dog food (Royal Canin Products, China Branch, or Brogaarden A/S, Denmark). The dogs were used for repeated PK studies with a suitable wash-out period between successive dosing. An appropriate acclimatization period was given prior to initiation of the first PK study. All handling, dosing, and blood sampling of the animals were performed by trained and skilled staff. Before the studies, the dogs were fasted overnight and from 0 to 4 hours after dosing. The dogs were restricted to water 1 hour before dosing until 4 hours after dosing, but otherwise had ad libitum access to water during the whole period.
The compositions were administered by a single oral dosing to the dogs in groups of 6-8 dogs. […] The mouth was then closed, and 10 mL of tap water was given by syringe or gavage to facilitate swallowing of the tablet.
One blood sample was drawn before dosing, and additional samples were drawn at predefined time points after dosing for up to 240 hours, such as up to 10 hours, to adequately cover the full plasma concentration-time absorption profile of the test substance. For each blood sample time point, approximately 0.8 mL of whole blood was collected in a 1.5 mL EDTA-coated tube, which was gently turned to mix the sample with EDTA. Blood samples were collected in EDTA buffer (8 mM) and then centrifuged at 4° C. 2000 g for 10 minutes. Plasma was pipetted into Micronic tubes on dry ice, and kept at −20° C. or lower until analysis. Blood samples were taken as appropriate, for example from a venflon in the cephalic vein in the front leg for the first 2 hours and then with syringe from the jugular vein for the rest of the time points. The first few drops were allowed to drain from the venflon to avoid heparin saline from the venflon in the sample.
All blood samples were collected into test tubes containing EDTA for stabilisation and kept on ice until centrifugation. Plasma was separated from whole blood by centrifugation and the plasma was stored at −20° C. or lower until analysis.
The plasma was analysed for test substance using LC-MS (Liquid Chromatography-Mass Spectrometry) as known to the person skilled in the art. […] RP-HPLC separation was achieved using a linear gradient of 1:1 acetonitrile/methanol in 1% aqueous formic acid using either: a Phenomenex Onyx Monolithic C18 column (50×2.0 mm) and a flow rate of 0.8 mL/min at 30° C.; or an Agilent Poroshell 120 SB-C18 column (50×2.1 mm, 2.7 μm) at a flow rate of 0.4 mL/min at 60° C. The mass spectrometer was operated in either positive ionization SIM mode or positive ionization PRM mode.
For each individual animal, a plasma concentration-time profile was analysed by a non-compartmental model in Pharsight Phoenix WinNonLin ver.

Marks after values point to notes of the source that are not given here. Starred links: 1 amine or outer side, 2 acyl side, 3 side chain; linkers in the order of their positions; H or OH if unused. Non-standard residues stand in square brackets, D forms with d. Residues, ends and D or L forms follow the SMILES beside them. Groups on a side chain read outwards from the residue. *: point of attachment. C20 diacid = O=C(O)CCCCCCCCCCCCCCCCCCC(=O)*; C18 diacid = O=C(O)CCCCCCCCCCCCCCCCC(=O)*; γGlu = O=C(O)[C@H](CCC(=O)[*:2])N[*:1]; εLys = N[C@@H](CCCCN[*:1])C(=O)[*:2]; Aib = CC(C)(N)C(=O)O

For `CC[C@H](C)[C@H](NC(=O)[C@H](Cc1ccccc1)NC(=O)[C@H](CCC(=O)O)NC(=O)[C@H](CCCNC(=N)N)NC(=O)[C@H](C)NC(=O)[C@H](C)NC(=O)[C@H](CCC(N)=O)NC(=O)[C@H](CCCCNC(=O)[C@@H](N)CCCCNC(=O)[C@@H](N)CCCCNC(=O)CC[C@H](NC(=O)CCCCCCCCCCCCCCCCCCC(=O)O)C(=O)O)NC(=O)[C@H](CCC(=O)O)NC(=O)[C@H](CC(C)C)NC(=O)[C@H](Cc1ccc(O)cc1)NC(=O)[C@@H](NC(=O)[C@H](CO)NC(=O)[C@H](Cc1ccc(O)cc1)NC(=O)[C@H](CC(=O)O)NC(=O)[C@H](CO)NC(=O)[C@@H](NC(=O)[C@H](Cc1ccccc1)NC(=O)[C@@H](NC(=O)CNC(=O)[C@H](CCC(=O)O)NC(=O)C(C)(C)NC(=O)[C@@H](N)Cc1ccc(O)cc1)[C@@H](C)O)[C@@H](C)O)[C@@H](C)CC)C(=O)N[C@@H](CC(N)=O)C(=O)N[C@@H](Cc1c[nH]c2ccccc12)C(=O)N[C@@H](CC(C)C)C(=O)N[C@@H](CC(C)C)C(=O)N[C@@H](C)C(=O)NCC(=O)NCC(=O)N1CCC[C@H]1C(=O)N[C@@H](CO)C(=O)N[C@@H](CO)C(=O)NCC(=O)N[C@@H](C)C(=O)N1CCC[C@H]1C(=O)N1CCC[C@H]1C(=O)N1CCC[C@H]1C(=O)N[C@@H](CO)C(=O)O` [Compound No. 16] (H-Y[Aib]EGTFTSDYSIYLEK([εLys-εLys-γGlu-C20 diacid])QAAREFINWLLAGGPSSGAPPPS-OH), the AUC/Dose amounted to 8.6 kg·h/L.

`CC[C@H](C)[C@H](NC(=O)[C@H](Cc1ccccc1)NC(=O)[C@H](CCC(=O)O)NC(=O)[C@H](CCCNC(=N)N)NC(=O)[C@H](C)NC(=O)[C@H](C)NC(=O)[C@H](CCC(N)=O)NC(=O)[C@H](CCCCNC(=O)[C@@H](N)CCCCNC(=O)[C@@H](N)CCCCNC(=O)CC[C@H](NC(=O)CCCCCCCCCCCCCCCCC(=O)O)C(=O)O)NC(=O)[C@H](CCC(=O)O)NC(=O)[C@H](CC(C)C)NC(=O)[C@H](CC(C)C)NC(=O)[C@@H](NC(=O)[C@H](CO)NC(=O)[C@H](Cc1ccc(O)cc1)NC(=O)[C@H](CC(=O)O)NC(=O)[C@H](CO)NC(=O)[C@@H](NC(=O)[C@H](Cc1ccccc1)NC(=O)[C@@H](NC(=O)CNC(=O)[C@H](CCC(=O)O)NC(=O)C(C)(C)NC(=O)[C@@H](N)Cc1ccc(O)cc1)[C@@H](C)O)[C@@H](C)O)[C@@H](C)CC)C(=O)N[C@@H](CC(N)=O)C(=O)N[C@@H](Cc1c[nH]c2ccccc12)C(=O)N[C@@H](CC(C)C)C(=O)N[C@@H](CC(C)C)C(=O)N[C@@H](C)C(=O)NCC(=O)NCC(=O)N1CCC[C@H]1C(=O)N[C@@H](CO)C(=O)N[C@@H](CO)C(=O)O` [Compound No. 20] (H-Y[Aib]EGTFTSDYSILLEK([εLys-εLys-γGlu-C18 diacid])QAAREFINWLLAGGPSS-OH; N-terminus assumed): the AUC/Dose is 10.8 kg·h/L.

`CC[C@H](C)[C@H](NC(=O)[C@H](Cc1ccccc1)NC(=O)[C@H](CCC(=O)O)NC(=O)[C@H](CCC(N)=O)NC(=O)[C@H](C)NC(=O)[C@H](C)NC(=O)[C@H](CCC(N)=O)NC(=O)[C@H](CCCCNC(=O)[C@@H](N)CCCCNC(=O)[C@@H](N)CCCCNC(=O)CC[C@H](NC(=O)CCCCCCCCCCCCCCCCC(=O)O)C(=O)O)NC(=O)[C@H](CCC(=O)O)NC(=O)[C@H](CC(C)C)NC(=O)[C@H](CC(C)C)NC(=O)[C@@H](NC(=O)[C@H](CO)NC(=O)[C@H](Cc1ccc(O)cc1)NC(=O)[C@H](CC(=O)O)NC(=O)[C@H](CO)NC(=O)[C@@H](NC(=O)[C@H](Cc1ccccc1)NC(=O)[C@@H](NC(=O)CNC(=O)[C@H](CCC(=O)O)NC(=O)C(C)(C)NC(=O)[C@@H](N)Cc1ccc(O)cc1)[C@@H](C)O)[C@@H](C)O)[C@@H](C)CC)C(=O)N[C@@H](CC(N)=O)C(=O)N[C@@H](Cc1c[nH]c2ccccc12)C(=O)N[C@@H](CC(C)C)C(=O)N[C@@H](CC(C)C)C(=O)N[C@@H](C)C(=O)NCC(=O)NCC(=O)N1CCC[C@H]1C(=O)N[C@@H](CO)C(=O)N[C@@H](CO)C(=O)NCC(=O)N[C@@H](C)C(=O)N1CCC[C@H]1C(=O)N1CCC[C@H]1C(=O)N1CCC[C@H]1C(=O)N[C@@H](CO)C(=O)O` [Compound No. 24] (H-Y[Aib]EGTFTSDYSILLEK([εLys-εLys-γGlu-C18 diacid])QAAQEFINWLLAGGPSSGAPPPS-OH; N-terminus assumed) had an AUC/Dose of 16.4 kg·h/L.

For `CC[C@H](C)[C@H](NC(=O)[C@H](Cc1ccccc1)NC(=O)[C@H](CCC(=O)O)NC(=O)[C@H](CCC(=O)O)NC(=O)[C@H](C)NC(=O)[C@H](C)NC(=O)[C@H](CCC(N)=O)NC(=O)[C@H](CCCCNC(=O)[C@@H](N)CCCCNC(=O)[C@@H](N)CCCCNC(=O)CC[C@H](NC(=O)CCCCCCCCCCCCCCCCC(=O)O)C(=O)O)NC(=O)[C@H](CCC(=O)O)NC(=O)[C@H](CC(C)C)NC(=O)[C@H](CC(C)C)NC(=O)[C@@H](NC(=O)[C@H](CO)NC(=O)[C@H](Cc1ccc(O)cc1)NC(=O)[C@H](CC(=O)O)NC(=O)[C@H](CO)NC(=O)[C@@H](NC(=O)[C@H](Cc1ccccc1)NC(=O)[C@@H](NC(=O)CNC(=O)[C@H](CCC(=O)O)NC(=O)C(C)(C)NC(=O)[C@@H](N)Cc1ccc(O)cc1)[C@@H](C)O)[C@@H](C)O)[C@@H](C)CC)C(=O)N[C@@H](CC(N)=O)C(=O)N[C@@H](Cc1c[nH]c2ccccc12)C(=O)N[C@@H](CC(C)C)C(=O)N[C@@H](CC(C)C)C(=O)N[C@@H](C)C(=O)NCC(=O)NCC(=O)N1CCC[C@H]1C(=O)N[C@@H](CO)C(=O)N[C@@H](CO)C(=O)NCC(=O)N[C@@H](C)C(=O)N1CCC[C@H]1C(=O)N1CCC[C@H]1C(=O)N1CCC[C@H]1C(=O)N[C@@H](CO)C(=O)O` [Compound No. 25] (H-Y[Aib]EGTFTSDYSILLEK([εLys-εLys-γGlu-C18 diacid])QAAEEFINWLLAGGPSSGAPPPS-OH), the AUC/Dose worked out at 15.2 kg·h/L. Consider `CC[C@H](C)[C@H](NC(=O)[C@H](Cc1ccccc1)NC(=O)[C@H](CCC(=O)O)NC(=O)[C@H](Cc1c[nH]cn1)NC(=O)[C@H](C)NC(=O)[C@H](C)NC(=O)[C@H](CCC(N)=O)NC(=O)[C@H](CCCCNC(=O)[C@@H](N)CCCCNC(=O)[C@@H](N)CCCCNC(=O)CC[C@H](NC(=O)CCCCCCCCCCCCCCCCC(=O)O)C(=O)O)NC(=O)[C@H](CCC(=O)O)NC(=O)[C@H](CC(C)C)NC(=O)[C@H](CC(C)C)NC(=O)[C@@H](NC(=O)[C@H](CO)NC(=O)[C@H](Cc1ccc(O)cc1)NC(=O)[C@H](CC(=O)O)NC(=O)[C@H](CO)NC(=O)[C@@H](NC(=O)[C@H](Cc1ccccc1)NC(=O)[C@@H](NC(=O)CNC(=O)[C@H](CCC(=O)O)NC(=O)C(C)(C)NC(=O)[C@@H](N)Cc1ccc(O)cc1)[C@@H](C)O)[C@@H](C)O)[C@@H](C)CC)C(=O)N[C@@H](CC(N)=O)C(=O)N[C@@H](Cc1c[nH]c2ccccc12)C(=O)N[C@@H](CC(C)C)C(=O)N[C@@H](CC(C)C)C(=O)N[C@@H](C)C(=O)NCC(=O)NCC(=O)N1CCC[C@H]1C(=O)N[C@@H](CO)C(=O)N[C@@H](CO)C(=O)NCC(=O)N[C@@H](C)C(=O)N1CCC[C@H]1C(=O)N1CCC[C@H]1C(=O)N1CCC[C@H]1C(=O)N[C@@H](CO)C(=O)O` [Compound No. 26] (H-Y[Aib]EGTFTSDYSILLEK([εLys-εLys-γGlu-C18 diacid])QAAHEFINWLLAGGPSSGAPPPS-OH), for which the AUC/Dose is listed as 27.4* kg*h/L.

The record behind these values is patent publication US20230120597A1, “CO-AGONISTS AT GLP-1 AND GIP RECEPTORS SUITABLE FOR ORAL DELIVERY” (Novo Nordisk A/S, priority 2020, published 2023).
